According to patent US20250296953A1, “3,4-THIAZOLO-STEROIDS AND METHODS OF MAKING AND USING THE SAME” (Arkansas State University - Jonesboro, priority 2018, published 2025):
Read-outs that look alike come from different tables or passages of the source.

Tests used:
[1] = test system: 60 different human tumor cell lines; details: five dose; for CC50: read-out: LC50
[2] = test system: SR; assay: NCI 60 five dose screen; details: SR (Leukemia), five dose
[3] = test system: gliosarcoma (SF-539); assay: NCI 60 five dose screen; details: SF-539 (CNS Cancer), five dose
[4] = A549/ATCC (Non-small Cell Lung Cancer)
[5] = EKVX (Non-small Cell Lung Cancer)
[6] = HOP-62 (Non-small Cell Lung Cancer)
[7] = HOP-92 (Non-small Cell Lung Cancer)
[8] = MDA-MB-231/ATCC (Breast Cancer)
[9] = NCI-H23 (Non-small Cell Lung Cancer)
[10] = NCI-H226 (Non-small Cell Lung Cancer)
[11] = NCI-H322M (Non-small Cell Lung Cancer)
[12] = NCI-H460 (Non-small Cell Lung Cancer)
[13] = NCI-H522 (Non-small Cell Lung Cancer)

Compound `C[C@]12CCc3nc(N)sc3C1=CC[C@@H]1[C@@H]2CC[C@]2(C)C(=NNC(N)=O)CC[C@@H]12` [IVb.1] has a GI50 ([1]; 786-0 (Renal Cancer)) of 1390 nM, a TGI ([1]; 786-0 (Renal Cancer)) of 2.82E−6 and a GI50 ([1]; A498 (Renal Cancer)) of 2100 nM. For the same compound, the TGI ([1]; A498 (Renal Cancer)) was 6.83E−6, the GI50 [1, 4] was 2020 nM and the TGI [1, 4] was 3.89E−6. It also gave a GI50 ([1]; ACHN (Renal Cancer)) of 1800 nM, a TGI ([1]; ACHN (Renal Cancer)) of 3.19E−6 and a GI50 ([1]; BT-549 (Breast Cancer)) of 2840 nM. The TGI ([1]; BT-549 (Breast Cancer)) was 8.91E−6, the GI50 ([1]; CAKI-1 (Renal Cancer)) was 1770 nM and the TGI ([1]; CAKI-1 (Renal Cancer)) was 3.64E−6. The GI50 ([1]; CCRF-CEM (Leukemia)) was 280 nM, the TGI ([1]; CCRF-CEM (Leukemia)) was 1.62E−6 and the GI50 ([1]; COLO 205 (Colon Cancer)) was 2060 nM. For the same compound, the TGI ([1]; COLO 205 (Colon Cancer)) was 4.37E−6, the GI50 ([1]; DU-145 (Prostate Cancer)) was 1750 nM and the TGI ([1]; DU-145 (Prostate Cancer)) was 3.41E−6. It also gave a GI50 [1, 5] of 1800 nM, a TGI [1, 5] of 3.63E−6 and a GI50 ([1]; HCC-2998 (Colon Cancer)) of 1740 nM. For the same compound, the TGI ([1]; HCC-2998 (Colon Cancer)) was 3.28E−6, the GI50 ([1]; HCT-15 (Colon Cancer)) was 1460 nM and the TGI ([1]; HCT-15 (Colon Cancer)) was 2.86E−6. For the same compound, the GI50 ([1]; HCT-116 (Colon Cancer)) was 2090 nM, the TGI ([1]; HCT-116 (Colon Cancer)) was 4.35E−6 and the GI50 ([1]; HL-60(TB) (Leukemia)) was 2730 nM. For the same compound, the TGI ([1]; HL-60(TB) (Leukemia)) was 7.95E−6, the GI50 [1, 6] was 1840 nM and the TGI [1, 6] was 3.47E−6. It also gave a GI50 [1, 7] of 1510 nM, a TGI [1, 7] of 3.16E−6 and a GI50 ([1]; HS 578T (Breast Cancer)) of 2080 nM. It also gave a TGI ([1]; HS 578T (Breast Cancer)) of 5.15E−6, a GI50 ([1]; HT29 (Colon Cancer)) of 1880 nM and a TGI ([1]; HT29 (Colon Cancer)) of 3.73E−6. It also gave a GI50 ([1]; IGROV1 (Ovarian Cancer)) of 1780 nM, a TGI ([1]; IGROV1 (Ovarian Cancer)) of 3.43E−6 and a GI50 ([1]; K-562 (Leukemia)) of 1810 nM. The TGI ([1]; K-562 (Leukemia)) was 5.08E−6, the GI50 ([1]; KM12 (Colon Cancer)) was 2010 nM and the TGI ([1]; KM12 (Colon Cancer)) was 4.01E−6. For the same compound, the GI50 ([1]; LOX IMVI (Melanoma)) was 1710 nM, the TGI ([1]; LOX IMVI (Melanoma)) was 3.12E−6 and the GI50 ([1]; M14 (Melanoma)) was 1940 nM. The TGI ([1]; M14 (Melanoma)) was 3.77E−6, the GI50 ([1]; MALME-3M (Melanoma)) was 1760 nM and the TGI ([1]; MALME-3M (Melanoma)) was 3.49E−6. For the same compound, the GI50 ([1]; MCF7 (Breast Cancer)) was 1520 nM, the TGI ([1]; MCF7 (Breast Cancer)) was 3.14E−6 and the GI50 [1, 8] was 1700 nM. The TGI [1, 8] was 3.43E−6, the GI50 ([1]; MDA-MB-435 (Melanoma)) was 1330 nM and the TGI ([1]; MDA-MB-435 (Melanoma)) was 2.70E−6. It also gave a GI50 ([1]; MDA-MB-468 (Breast Cancer)) of 1600 nM, a TGI ([1]; MDA-MB-468 (Breast Cancer)) of 3.17E−6 and a GI50 ([1]; MOLT-4 (Leukemia)) of 2640 nM. For the same compound, the TGI ([1]; MOLT-4 (Leukemia)) was 7.02E−6, the GI50 [1, 9] was 1780 nM and the TGI [1, 9] was 3.32E−6. It also gave a GI50 [1, 10] of 2090 nM, a TGI [1, 10] of 4.91E6 and a GI50 [1, 11] of 1770 nM. For the same compound, the TGI [1, 11] was 3.55E−6, the GI50 [1, 12] was 1920 nM and the TGI [1, 12] was 3.61E−6. It also gave a GI50 [1, 13] of 1930 nM, a TGI [1, 13] of 4.06E−6 and a GI50 ([1]; NCI/ADR-RES (Ovarian Cancer)) of 1940 nM. It also gave a TGI ([1]; NCI/ADR-RES (Ovarian Cancer)) of 3.87E−6, a GI50 ([1]; OVCAR-3 (Ovarian Cancer)) of 1870 nM and a TGI ([1]; OVCAR-3 (Ovarian Cancer)) of 3.44E−6. It also gave a GI50 ([1]; OVCAR-4 (Ovarian Cancer)) of 1740 nM, a TGI ([1]; OVCAR-4 (Ovarian Cancer)) of 3.17E−6 and a GI50 ([1]; OVCAR-5 (Ovarian Cancer)) of 1710 nM. It also gave a GI50 ([1]; OVCAR-8 (Ovarian Cancer)) of 1850 nM, a TGI ([1]; OVCAR-8 (Ovarian Cancer)) of 3.63E−6 and a GI50 ([1]; PC-3 (Prostate Cancer)) of 1250 nM. It also gave a TGI ([1]; PC-3 (Prostate Cancer)) of 2.75E−6, a GI50 ([1]; RXF 393 (Renal Cancer)) of 1610 nM and a TGI ([1]; RXF 393 (Renal Cancer)) of 3.23E−6. The GI50 ([1]; SF-268 (CNS Cancer)) was 1780 nM, the TGI ([1]; SF-268 (CNS Cancer)) was 4.11E−6 and the GI50 ([1]; SK-MEL-2 (Melanoma)) was 1980 nM. The TGI ([1]; SK-MEL-2 (Melanoma)) was 4.58E−6, the GI50 ([1]; SK-MEL-5 (Melanoma)) was 1570 nM and the TGI ([1]; SK-MEL-5 (Melanoma)) was 2.97E−6. For the same compound, the GI50 ([1]; SK-MEL-28 (Melanoma)) was 1630 nM, the TGI ([1]; SK-MEL-28 (Melanoma)) was 3.10E−6 and the GI50 ([1]; SK-OV-3 (Ovarian Cancer)) was 6210 nM. The TGI ([1]; SK-OV-3 (Ovarian Cancer)) was 2.23E−6, the GI50 ([1]; SN12C (Renal Cancer)) was 1890 nM and the TGI ([1]; SN12C (Renal Cancer)) was 3.45E−6. It also gave a GI50 ([1]; SNB-19 (CNS Cancer)) of 1870 nM, a TGI ([1]; SNB-19 (CNS Cancer)) of 3.62E−6 and a GI50 ([1]; SNB-75 (CNS Cancer)) of 1580 nM. It also gave a TGI ([1]; SNB-75 (CNS Cancer)) of 3.50E−6, a GI50 ([1]; SW-620 (Colon Cancer)) of 1690 nM and a TGI ([1]; SW-620 (Colon Cancer)) of 3.39E−6. It also gave a GI50 ([1]; T-47D (Breast Cancer)) of 1860 nM, a TGI ([1]; T-47D (Breast Cancer)) of 3.80E−6 and a GI50 ([1]; TK-10 (Renal Cancer)) of 2290 nM. For the same compound, the TGI ([1]; TK-10 (Renal Cancer)) was 5.45E−6, the GI50 ([1]; U251 (CNS Cancer)) was 1770 nM and the TGI ([1]; U251 (CNS Cancer)) was 3.22E−6. The GI50 ([1]; UACC-62 (Melanoma)) was 1630 nM, the TGI ([1]; UACC-62 (Melanoma)) was 3.13E−6 and the GI50 ([1]; UACC-257 (Melanoma)) was 2400 nM. It also gave a TGI ([1]; UACC-257 (Melanoma)) of 5.83E−6, a GI50 ([1]; UO-31 (Renal Cancer)) of 1520 nM and a TGI ([1]; UO-31 (Renal Cancer)) of 2.88E−6. The CC50 ([1]; 786-0 (Renal Cancer)) was 5960 nM, the CC50 ([1]; A498 (Renal Cancer)) was 27800 nM and the CC50 [1, 4] was 7510 nM. For the same compound, the CC50 ([1]; ACHN (Renal Cancer)) was 5680 nM, the CC50 ([1]; BT-549 (Breast Cancer)) was 88500 nM and the CC50 ([1]; CAKI-1 (Renal Cancer)) was 7490 nM. For the same compound, the CC50 ([1]; CCRF-CEM (Leukemia)) was > 100000 nM, the CC50 ([1]; COLO 205 (Colon Cancer)) was 9250 nM and the CC50 ([1]; DU-145 (Prostate Cancer)) was 6660 nM. The CC50 [1, 5] was 7320 nM, the CC50 ([1]; HCC-2998 (Colon Cancer)) was 6150 nM and the CC50 ([1]; HCT-15 (Colon Cancer)) was 5600 nM. For the same compound, the CC50 ([1]; HCT-116 (Colon Cancer)) was 9070 nM, the CC50 ([1]; HL-60(TB) (Leukemia)) was > 100000 nM and the CC50 [1, 6] was 6540 nM. The CC50 [1, 7] was 6600 nM, the CC50 ([1]; HT29 (Colon Cancer)) was 7410 nM and the CC50 ([1]; IGROV1 (Ovarian Cancer)) was 6630 nM. It also gave a CC50 ([1]; K-562 (Leukemia)) of 40400 nM, a CC50 ([1]; KM12 (Colon Cancer)) of 6790 nM and a CC50 ([1]; LOX IMVI (Melanoma)) of 5720 nM. It also gave a CC50 ([1]; M14 (Melanoma)) of 7310 nM, a CC50 ([1]; MALME-3M (Melanoma)) of 6900 nM and a CC50 ([1]; MCF7 (Breast Cancer)) of 6500 nM. For the same compound, the CC50 [1, 8] was 6900 nM, the CC50 ([1]; MDA-MB-435 (Melanoma)) was 5490 nM and the CC50 ([1]; MDA-MB-468 (Breast Cancer)) was 6300 nM. For the same compound, the CC50 ([1]; MOLT-4 (Leukemia)) was 93300 nM, the CC50 [1, 9] was 6210 nM and the CC50 [1, 10] was 17400 nM. For the same compound, the CC50 [1, 12] was 6790 nM, the CC50 [1, 13] was 8550 nM and the CC50 ([1]; NCI/ADR-RES (Ovarian Cancer)) was 7710 nM. The CC50 ([1]; OVCAR-3 (Ovarian Cancer)) was 6340 nM, the CC50 ([1]; OVCAR-4 (Ovarian Cancer)) was 5780 nM and the CC50 ([1]; OVCAR-5 (Ovarian Cancer)) was 5960 nM. For the same compound, the CC50 ([1]; OVCAR-8 (Ovarian Cancer)) was 7110 nM, the CC50 ([1]; PC-3 (Prostate Cancer)) was 6010 nM and the CC50 ([1]; RXF 393 (Renal Cancer)) was 6480 nM. For the same compound, the CC50 ([1]; SF-268 (CNS Cancer)) was 9480 nM, the CC50 ([1]; SK-MEL-2 (Melanoma)) was 12400 nM and the CC50 ([1]; SK-MEL-5 (Melanoma)) was 5610 nM. For the same compound, the CC50 ([1]; SK-MEL-28 (Melanoma)) was 5880 nM, the CC50 ([1]; SK-OV-3 (Ovarian Cancer)) was 66700 nM and the CC50 ([1]; SN12C (Renal Cancer)) was 6330 nM. The CC50 ([1]; SNB-19 (CNS Cancer)) was 7010 nM, the CC50 ([1]; SNB-75 (CNS Cancer)) was 7760 nM and the CC50 ([1]; SW-620 (Colon Cancer)) was 8550 nM. It also gave a CC50 ([1]; T-47D (Breast Cancer)) of 7770 nM, a CC50 ([1]; TK-10 (Renal Cancer)) of 19300 nM and a CC50 ([1]; U251 (CNS Cancer)) of 5860 nM. It also gave a CC50 ([1]; UACC-62 (Melanoma)) of 5980 nM, a CC50 ([1]; UACC-257 (Melanoma)) of 25700 nM and a CC50 ([1]; UO-31 (Renal Cancer)) of 5440 nM. The GI50 [2] was 1290 nM, the TGI [2] was 4.33E−6 and the CC50 ([2]; read-out: LC50) was > 100000 nM. For the same compound, the GI50 [3] was 2050 nM, the TGI [3] was 5.23E−6 and the CC50 ([3]; read-out: LC50) was 19800 nM.
